Assay results as given in patent publication US9163077B2, “RhoC-based immunotherapy” (RHOVAC APS, priority 2007, dated 2015).
No end group written: not given here.

What was measured:
HLA-A3 = HLA-A3 (Homo sapiens, UniProt P04439); experiment: Assembly assay for peptide binding to MHC class I molecules; settings: HLA-A3, lysate of T2-A3 cells, FIG. 2; read-out: peptide concentration required for half maximal recovery of class I MHC molecules (C50 value)
Description: The binding affinity of the synthetic peptides (Genscript, Scotch Plains, US) to HLA-A3 molecules was measured by means of the assembly assay as described (13). The assay is based on the stabilization of the class I molecule after loading of different concentrations of peptide to the TAP-deficient cell line T2-A3. Briefly, T2-A3 cells were incubated in methionine-free RPMI 1640 (Gibco BRL, Paisley, UK) with 10% dialysed FCS. Subsequently, cells were metabolically labelled with 50 μCi ^35S-methionine (Amersham, Birkeroed, Denmark). […] Cell nuclei were removed by ultracentrifugation. The supernatant of T2-A3 cells was heated for 5 min at 45° C. in order to reduce background signals by preferentially destabilizing empty HLA-A3. The samples were precleared by addition of Pansorbin (Calbiochem, Darmstadt, Germany) and left on rotation overnight. Stably folded HLA molecules were immune-precipitated using the HLA class I-specific, conformation-dependent mAb W6/32. A-Sepharose beads were added to collect the folded MHC complexes and separated by isoelectric focusing gel electropheresis. MHC heavy chains were quantified using the ImageGauge Phosphorimager program (FUJI Photo Film). The intensity of the band is directly related to the amount of peptide-bound class I MHC complex recovered during the assay. Subsequently, the extent of stabilization of HLA-A3 is directly related to the binding affinity of the added peptide. The C50-value was calculated for each peptide as the peptide concentration sufficient for half maximal stabilization.

T2-A3 cells = experiment: 51Cr-release cytotoxicity assay, peptide-pulsed T2-A3 target cells; assay type: cell-based, human; settings: for lysis of peptide-pulsed T2-A3 cells by CTL clone 9: FIG. 4b; for lysis of peptide-pulsed T2-A3 cells by Rho1L2-stimulated CTL bulk cultures: bulk culture from MM patient after four restimulations, FIG. 4a, unpulsed cells not lysed
Description: (§1) PBL from a melanoma (MM) patient were stimulated with irradiated (20 Gy) autologous Rho1L2-loaded DC (PBL:DC ratio=3×10^6:3×10^5). The following day 120 U/ml IL-2 (PeproTech, London, UK) was added. Stimulation of the cultures were carried out every 10 days with Rho1L2-loaded irradiated autologous DC (2×) followed by Rho1L2-loaded irradiated autologous PBL (3×). Hundred and twenty U/ml IL-2 (PeproTech, London, UK) was added after each stimulation. After one month growing cultures were tested for specificity for Rho1L2.
(§2) PBL from a specific culture were cloned by limiting dilution in the presence of cloning mix containing 10^6/ml irradiated (20 Gy) lymphocytes from three healthy donors in X-vivo with 5% heat-inactivated human serum, 25 mM HEPES buffer (GibcoBRL, Paisley, UK), and 120 U/ml IL-2 (PeproTech, London, UK). The plates were incubated at 37° C./5% CO2. Every 3-4 days 50 μl fresh media were added containing IL-2 to a final concentration of 120 U/ml. Growing clones were expanded using cloning mix cells (5×10^4 cells/well) and IL-2. After expansion the clones were tested for specificity and cytotoxic potential in a standard ^51Cr-release assay.
Conventional ^51Cr-release assays for CTL-mediated cytotoxicity were carried out as described elsewhere (Andersen et al., (1999) J Immunol 163:3812-3818). Target cells were T2-A3 cells, the HLA-A3^+ breast cancer cell line BT-20, the HLA-A3^+ colon cancer cell line HT-29, the HLA-A3^+ head and neck cancer cell line CRL-2095 (all available at the American Type Culture Collection (ATCC)), the HLA-A3^+ melanoma cell line FM9, the HLA-A3^− melanoma cell line FM82, and the HLA-A3^+ melanoma cell line FM3 (Kirkin et al., (1995) Cancer Immunol Immunother 41: 71-81), with or without added HLA specific mAb W6/32 (Barnstable et al., (1978) Cell 14: 9-20) (2 μg/100 μl) (Schmidt et al., (2003) Blood 102: 571-576) or the HLA-A3 specific antibody GAPA3 (Sire et al., (1988) 140: 2422-2430).

[1] = test system: peptide epitope-specific INF-γ releasing effector cells; experiment: IFN-γ ELISPOT assay on in vitro stimulated PBL/PBMC; assay type: cell-based, human; settings: for specific T-cell responses among PBMC: HLA-A3+ healthy controls (HD); for specific T-cell responses among PBL: HLA-A3+ renal cell carcinoma (RCC) patients
Description: Peripheral blood lymphocytes (PBL) from HLA-A3^+ cancer patients or peripheral blood mononuclear cells (PBMC) from healthy controls were obtained from the University Hospital Herlev, Denmark. Cells were cryopreserved in FCS with 10% DMSO. Tissue typing was conducted at the Department of Clinical Immunology, The State Hospital, Copenhagen, Denmark. Informed consent was obtained from the patients before any of these measures.
To extend the sensitivity of the ELISPOT assay, PBL were stimulated once before analysis. At day 0, PBL were thawed and plated in 24-well plates (Nunc, Roskilde, Denmark) in X-Vivo medium (Cambrex Bio Science Copenhagen, Vallensbaek Strand, Denmark) with 5% heat-inactivated human serum in the presence of 10 μM peptide (GenScript, Scotch Plains, US). The following day 20 U/ml IL-2 (PeproTech, London, UK) was added to the cultures. The cultured cells were tested for reactivity in the ELISPOT on day 8.
The ELISPOT assay was used to quantify peptide epitope-specific INF-γ releasing effector cells as described previously (WO 2005/049073, Example 1.2). Briefly, nitrocellulose bottomed 96-well plates (MultiScreen MAIP N45, Millipore, Hedehusene, Denmark) were coated with anti-IFN-γ antibody (1-D1K, Mabtech, Nacka, Sweden). The wells were washed, blocked with X-vivo medium before adding 10^4 stimulator T2-A3 cells (with or without 10 μM peptide; Rho1L2: RLGLQVRKNK; Rho1: RAGLQVRKNK (GenScript, Scotch Plains, US)) and effector cells at different concentrations. The plates were incubated overnight. The following day, medium was discarded and the wells were washed prior to addition of biotinylated secondary antibody (7-B6-1-Biotin, Mabtech, Nacka, Sweden). The plates were incubated for 2 hrs, washed and Avidin-enzyme conjugate (AP-Avidin, Calbiochem, Life Technologies, Inc., Roskilde, Denmark) was added to each well. Plates were incubated at RT for 1 hr before the enzyme substrate NBT/BCIP (Gibco Life Technology, Taastrup, Denmark) was added to each well and incubated at RT for 5-10 min. The reaction was terminated with tap-water upon the emergency of dark purple spots. The spots were counted using the ImmunoSpot® Series 2.0 Analyzer (CTL Analyzers, LLC, Cleveland, US) and the peptide specific CTL frequency could be calculated from the numbers of spot-forming cells. The number of antigen-specific spots was calculated by subtracting the mean number of spots of the control wells from the mean number of spots in the positive wells; responses with a p-value<0.05 (Student t-test for unpaired samples) were considered as positive. The definition is in respect with the CIMT Monitoring Panel inter-laboratory testing project (www.c-imt.org).

[2] = test system: HLA-A3+ melanoma cell line FM3; experiment: 51Cr-release cytotoxicity assay, FM3 target cells; assay type: cell-based, human; settings: unlabeled T2-A3 cells pulsed with peptide, inhibitor to target ratio 20:1, FIG. 5b
Description: as §1, §2
Conventional ^51Cr-release assays for CTL-mediated cytotoxicity were carried out as described elsewhere (Andersen et al., (1999) J Immunol 163:3812-3818). […]

HLA-A3, sequence (P04439 25-365): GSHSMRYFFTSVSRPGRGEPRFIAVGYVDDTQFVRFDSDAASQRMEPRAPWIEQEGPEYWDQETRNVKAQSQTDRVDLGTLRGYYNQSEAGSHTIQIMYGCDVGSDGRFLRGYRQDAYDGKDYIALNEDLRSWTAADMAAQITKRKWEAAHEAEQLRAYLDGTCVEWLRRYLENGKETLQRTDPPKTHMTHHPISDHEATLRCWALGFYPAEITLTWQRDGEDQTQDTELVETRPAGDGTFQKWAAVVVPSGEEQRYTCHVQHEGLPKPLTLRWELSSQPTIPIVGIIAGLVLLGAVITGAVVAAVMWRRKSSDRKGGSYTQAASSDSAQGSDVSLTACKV
HLA-A3, sequence (P61769 21-119 partner): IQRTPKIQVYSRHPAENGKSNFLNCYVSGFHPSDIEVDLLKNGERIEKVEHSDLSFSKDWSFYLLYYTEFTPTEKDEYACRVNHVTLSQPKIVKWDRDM

Molecule	EC50 (HLA-A3)	lysis of peptide-pulsed T2-A3 cells by CTL clone 9 (T2-A3 cells)	lysis of peptide-pulsed T2-A3 cells by Rho1L2-stimulated CTL bulk cultures (T2-A3 cells)	specific T-cell responses among PBMC [1]	specific T-cell responses among PBL [1]	cold target inhibition of clone 9 killing of FM3 cells [2]	patients with specific T-cell responses among PBL ([1]; HLA-A3+ melanoma (MM) patients, PBL stimulated once in vitro, FIG. 3)
CC[C@H](C)[C@H](N)C(=O)N[C@@H](CC(C)C)C(=O)N[C@@H](CCCNC(=N)N)C(=O)NCC(=O)N[C@@H](CO)C(=O)N[C@H](C(=O)N[C@@H](C)C(=O)N[C@@H](Cc1c[nH]cn1)C(=O)N[C@@H](CCCCN)C(=O)O)C(C)C [Influenza NP265-273, ILRGSVAHK, reference compound]	0.3 µM	–	–	–	–	–	–
RAGLQVRKNK [Rho1, RAGLQVRKNK]	> 40 µM	effectively lysed	efficiently	No responses were detected	No responses were detected	–	–
RLGLQVRKNK [Rho1L2, RLGLQVRKNK]	4 µM	effectively lysed	efficiently	No responses were detected	No responses were detected	completely abrogated	3 out of 10
